Key:
Assay type in all cases: in vivo, mouse
[1] = tested on: M1 (CD11b+/CD11c+) and M2 (CD11b+/CD206+) macrophages; assay: Immunostaining of M1 and M2 macrophages in heart sections day 3 post-infarction; conditions: young mice
Protocol: (§1) To induce Cre recombination to achieve GFP labeling of cardiomyocytes, tamoxifen (Sigma) was dissolved in sunflower oil (Sigma) at a concentration of 5 mg/ml. The tamoxifen solution was injected intraperitoneally into M/Z mice daily at a dosage of 40 μg per 1 g body weight for 14 days, and the same dosage was injected twice daily for short-term labeling using methods known in the art (Laugwitz, K.-L. et al. Nature 433, 647-653 (2005)). All experimental conditions were optimized prior to the PGE2, indomethacin and TGF-β Type I Receptor Kinase Inhibitor II (ALK5 Inhibitor II, ALK5i, Merck) treatments. The mice treated with PGE2 or PGI2 (Vegiopoulos, A. et al. Science 328, 1158-1161 (2010)) (both from Sigma) were injected intraperitoneally with 3.33 ng of drug per 1 g of body weight dissolved in absolute ethanol twice daily. For the indomethacin treatment, mice were fed with water containing indomethacin (Sigma, 15 μg/ml) for different periods of time. […]
The harvested hearts were fixed with 4% paraformaldehyde and embedded in paraffin. […] A DAB substrate kit (Vector Laboratories) was used for immunohistochemistry and appropriate secondary antibodies (Invitrogen or Abcam) were used for visualization under a fluorescence microscope. […] The appropriate secondary antibodies (Invitrogen or Jackson ImmunoResearch) were used for visualization under a fluorescence microscope. […]

B220 = assay: Quantitative RT-PCR of B cell marker B220 in infarct region; conditions: both young and old mice; day 3 post-infarction
Protocol: as §1, with “daily.” for “daily. For the indomethacin treatment, mice were fed with water containing indomethacin (Sigma, 15 μg/ml) for different periods of time.”
(§2) The total RNA isolated from the ischemic region or remote area of MI hearts was reverse transcribed using the SuperScript III (Invitrogen) system according to the manufacturer's protocol. For quantitative PCR, the SYBR Green reagent (Maestrogen) was used according to the manufacturer's protocol. The analysis of relative gene expression was performed using the 2̂[−delta delta Ct] method and sequence-specific primers designed for semi-quantitative PCR and real-time RT-PCR (FIG. 11).

[2] = tested on: MMP2, MMP9, TNF-α, IL-1β and IL-6; assay: Quantitative RT-PCR of inflammatory cytokines in infarct region; conditions: young mice
Protocol: as §1, with “daily.” for “daily. For the indomethacin treatment, mice were fed with water containing indomethacin (Sigma, 15 μg/ml) for different periods of time.”
as §2

TGF-β1 = assay: Quantitative RT-PCR of TGF-β1 in infarcted region of MI heart; conditions: day 3 and day 7 after injury
Protocol: as §1, with “daily.” for “daily. For the indomethacin treatment, mice were fed with water containing indomethacin (Sigma, 15 μg/ml) for different periods of time.”
as §2

MerCreMer/ZEG (M/Z) mice = assay: Echocardiography after myocardial infarction (ejection fraction); conditions: echocardiography at one and two months post-infarction
Protocol: M/Z mice were subjected to experimental myocardial infarction (MI) one month after the last tamoxifen injection. MI was generated by ligating the left anterior descending coronary artery at 2-3 mm distal to the left atrial appendage. For cell transplantation experiments, intramyocardial injections were performed immediately after coronary ligation. A total of 6×10^5 cardiac Sca-1^+ cells were injected per mouse in two divided injections (5 μl/injection). For BrdU labeling, the mice were subcutaneously implanted with osmotic minipump (Alzet) at the time of surgery and 40 μg/μl of BrdU (Sigma) was administrated. For immunohistological studies, mice were sacrificed and the hearts were harvested at different time points following experimental MI surgery. Cardiac performances were assessed by echocardiography at 28 and 56 days after operation using Vevo 770 (Visualsonics, Toronto, Canada).
To induce Cre recombination to achieve GFP labeling of cardiomyocytes, tamoxifen (Sigma) was dissolved in sunflower oil (Sigma) at a concentration of 5 mg/ml. The tamoxifen solution was injected intraperitoneally into M/Z mice daily at a dosage of 40 μg per 1 g body weight for 14 days, and the same dosage was injected twice daily for short-term labeling using methods known in the art (Laugwitz, K.-L. et al. Nature 433, 647-653 (2005)). […]

Sca-1 = assay: Quantitative RT-PCR of Sca-1 in infarct zone of MI heart; conditions: day 3 post-MI
Protocol: To induce Cre recombination to achieve GFP labeling of cardiomyocytes, tamoxifen (Sigma) was dissolved in sunflower oil (Sigma) at a concentration of 5 mg/ml. The tamoxifen solution was injected intraperitoneally into M/Z mice daily at a dosage of 40 μg per 1 g body weight for 14 days, and the same dosage was injected twice daily for short-term labeling using methods known in the art (Laugwitz, K.-L. et al. Nature 433, 647-653 (2005)). All experimental conditions were optimized prior to the PGE2, indomethacin and TGF-β Type I Receptor Kinase Inhibitor II (ALK5 Inhibitor II, ALK5i, Merck) treatments. The mice treated with PGE2 or PGI2 (Vegiopoulos, A. et al. Science 328, 1158-1161 (2010)) (both from Sigma) were injected intraperitoneally with 3.33 ng of drug per 1 g of body weight dissolved in absolute ethanol twice daily. For the indomethacin treatment, mice were fed with water containing indomethacin (Sigma, 15 μg/ml) for different periods of time. The indomethacin-containing water was changed every 3 days. The mice subjected to the celecoxib (Lyons, T. R. et al. Nat. Med. 17, 1109-1115 (2011)) (Sigma) treatment were injected intraperitoneally with 5 μg of drug per 1 g of body weight daily. For ALK5i treatment, aged mice were injected intraperitoneally once per day with 1 μg of drug per 1 g of body weight one day before surgery and continuously until day 10 post-MI. Celecoxib and ALK5i were dissolved in ethanol and DMSO, respectively.
as §2

CCCCC[C@H](O)/C=C/C1C(O)CC(=O)C1C/C=C\CCCC(=O)O (stereo partly drawn) [PGE2, (5Z,11α,13E,15S)-7-[3-hydroxy-2-(3-hydroxyoct-1-enyl)-5-oxo-cyclopentyl]hept-5-enoic acid]
number of M1 macrophage [1]: reduced | number of M2 macrophage [1]: increased | B220 level (B220): reduced | expression of inflammatory cytokines acting downstream of PGE2 [2]: further enhanced | expression of TGF-β1 (TGF-β1; aged mice): decline | expression of TGF-β1 (TGF-β1; young mice): not significantly altered | cardiac function post-MI (MerCreMer/ZEG (M/Z) mice): improved | Sca-1 expression (Sca-1; aged animals): restored Sca-1 expression to levels similar to those in young mice | Sca-1 expression (Sca-1; young mice): further increased
